Measured values: patent publication US20120021973A1, “Peptides for Treatment of Obesity” (priority 2008, published 2012)
*1 amine or outer side, *2 acyl side, *3 side chain or, on linkers, in order; H or OH if unused. Where a SMILES comes first, the peptide text is derived from it. Bridges are numbered along the chain shown (N, C = ends). [ ]: non-standard residue; d: D form. The star is where a group is joined. Palmitoyl(16-(5-tetrazolyl)) = O=C(CCCCCCCCCCCCCCCc1nnn[nH]1)*; Lys(CH2CO2H)2 = N[C@@H](CCCCN(CC(=O)O)CC(=O)O)C(=O)O; X1 = O=C(O)CN(CC(=O)O)C[C@H](N[*:1])C(=O)[*:2]; C20 diacid = O=C(O)CCCCCCCCCCCCCCCCCCC(=O)*; Hyp = O=C(O)[C@@H]1C[C@@H](O)CN1; NTA = O=C(O)CN(CC(=O)O)CC(=O)*; Nle = CCCC[C@H](N)C(=O)O; Dap = NC[C@H](N)C(=O)O; AEEA = NCCOCCOCC(=O)O; βAla = NCCC(=O)O

Test system: ad libitum fed rat
Test: Assay (I) efficacy testing on appetite, ad libitum fed rat model
Type: in vivo
Procedure: Assay (I)— Experimental Protocol for Efficacy Testing on Appetite with MC4 Analogues, Using an Ad Libitum Fed Rat Model.
TAC:SPRD @mol rats or Wistar rats from M&B Breeding and Research Centre A/S, Denmark are used for the experiments. The rats have a body weight 200-250 g at the start of experiment. The rats arrive at least 10-14 days before start of experiment with a body weight of 180-200 g. Each dose of compound is tested in a group of 8 rats. A vehicle group of 8 rats is included in each set of testing.
When the animals arrive they are housed individually in a reversed light/dark phase (lights off 7:30 am, lights on 7:30 pm), meaning that lights are off during daytime and on during nighttime. Since rats normally initiate food intake when light is removed, and eat the major part of their daily food intake during the night, this set up results in an alteration of the initiation time for food intake to 7:30 am, when lights are switched off. During the acclimatization period of 10-14 days, the rats have free access to food and water. During this period the animals are handled at least 3 times. The experiment is conducted in the rats' home cages. Immediately before dosing the rats are randomised to the various treatment groups (n 8) by body weight. They are dosed according to body weight at between 7:00 am and 7:45 am, with a 1-3 mg/kg solution administered intraperitoneally (ip), orally (po) or subcutaneously (sc). The time of dosing is recorded for each group. After dosing, the rats are returned to their home cages, where they then have access to food and water. The food consumption is recorded individually every hour for 7 hours, and then after 24 h and sometimes 48 h. At the end of the experimental session, the animals are euthanised.
The individual data are recorded in Microsoft excel sheets. Outliers are excluded after applying the Grubbs statistical evaluation test for outliers, and the result is presented graphically using the GraphPad Prism program.

SMILES | Food consumption (% of vehicle) 24 h (3 mg/kg) | Food consumption (% of vehicle) 48 h (3 mg/kg) | Food consumption (% of vehicle) 24 h (1 mg/kg) | Food consumption (% of vehicle) 48 h (1 mg/kg)
CCCC[C@H](NC(=O)[C@H](CNC(=O)CN(CC(=O)O)CC(=O)O)NC(=O)[C@H](CO)NC(=O)[C@H](CCC(N)=O)NC(=O)[C@H](CO)NC(=O)CNC(=O)COCCOCCNC(=O)CCCCCCCCCCCCCCCc1nnn[nH]1)C(=O)N[C@H]1CCC(=O)NCCCC[C@@H](C(N)=O)NC(=O)[C@H](Cc2c[nH]c3ccccc23)NC(=O)[C@H](CCCNC(=N)N)NC(=O)[C@@H](Cc2ccccc2)NC(=O)[C@@H]2C[C@@H](O)CN2C1=O [Example 4, (2-{2-[16-(Tetrazol-5-yl)hexadecanoylamino]ethoxy}ethoxy)acetyl-Gly-Ser-Gln-Ser-Dap(BCMA)-Nle-c[Glu-Hyp-D-Phe-Arg-Trp-Lys]-NH2] ({Palmitoyl(16-(5-tetrazolyl))-AEEA}-GSQS[Dap](NTA)[Nle]E[Hyp][dF]RWK-NH2; lactam 7-12) | 52 % of vehicle | 69 % of vehicle |  | 
CCCC[C@H](NC(=O)[C@H](CN(CC(=O)O)CC(=O)O)NC(=O)[C@H](Cc1c[nH]cn1)NC(=O)[C@H](CCC(N)=O)NC(=O)[C@H](CO)NC(=O)CNC(=O)COCCOCCNC(=O)CCCCCCCCCCCCCCCc1nnn[nH]1)C(=O)N[C@H]1CCC(=O)NCCCC[C@@H](C(N)=O)NC(=O)[C@H](Cc2c[nH]c3ccccc23)NC(=O)[C@H](CCCNC(=N)N)NC(=O)[C@@H](Cc2ccccc2)NC(=O)[C@@H]2C[C@@H](O)CN2C1=O [Example 6, (2-{2-[16-(Tetrazol-5-yl)hexadecanoylamino]ethoxy}ethoxy)acetyl-Gly-Ser-Gln-His-Dap(biscarboxymethyl)-Nle-c[Glu-Hyp-D-Phe-Arg-Trp-Lys]-NH2] ({Palmitoyl(16-(5-tetrazolyl))-AEEA}-GSQH[X1][Nle]E[Hyp][dF]RWK-NH2; lactam 7-12) | 58 % of vehicle | 69 % of vehicle |  | 
CCCC[C@H](NC(=O)[C@H](CNC(=O)CN(CC(=O)O)CC(=O)O)NC(=O)[C@H](Cc1c[nH]cn1)NC(=O)[C@H](CCC(N)=O)NC(=O)[C@H](CO)NC(=O)CNC(=O)COCCOCCNC(=O)CCCCCCCCCCCCCCCc1nnn[nH]1)C(=O)N[C@H]1CCC(=O)NCCCC[C@@H](C(N)=O)NC(=O)[C@H](Cc2c[nH]c3ccccc23)NC(=O)[C@H](CCCNC(=N)N)NC(=O)[C@@H](Cc2ccccc2)NC(=O)[C@@H]2C[C@@H](O)CN2C1=O [Example 9, (2-{2-[16-(Tetrazol-5-yl)hexadecanoylamino]ethoxy}ethoxy)acetyl-Gly-Ser-Gln-His-Dap(BCMA)-Nle-c[Glu-Hyp-D-Phe-Arg-Trp-Lys]-NH2] ({Palmitoyl(16-(5-tetrazolyl))-AEEA}-GSQH[Dap](NTA)[Nle]E[Hyp][dF]RWK-NH2; lactam 7-12) | 47 % of vehicle | 57 % of vehicle |  | 
CCCC[C@H](NC(=O)[C@H](CCCCNC(=O)CN(CC(=O)O)CC(=O)O)NC(=O)[C@H](CO)NC(=O)[C@H](CCC(N)=O)NC(=O)[C@H](CO)NC(=O)CNC(=O)COCCOCCNC(=O)CCCCCCCCCCCCCCCc1nnn[nH]1)C(=O)N[C@H]1CCC(=O)NCCCC[C@@H](C(N)=O)NC(=O)[C@H](Cc2c[nH]c3ccccc23)NC(=O)[C@H](CCCNC(=N)N)NC(=O)[C@@H](Cc2ccccc2)NC(=O)[C@@H]2C[C@@H](O)CN2C1=O [Example 15, (2-{2-[16-(Tetrazol-5-yl)hexadecanoylamino]ethoxy}ethoxy)acetyl-Gly-Ser-Gln-Ser-Lys(BCMA)-Nle-c[Glu-Hyp-D-Phe-Arg-Trp-Lys]-NH2] ({Palmitoyl(16-(5-tetrazolyl))-AEEA}-GSQSK(NTA)[Nle]E[Hyp][dF]RWK-NH2; lactam 7-12) |  |  | 74 % of vehicle | 85 % of vehicle
CCCC[C@H](NC(=O)CCNC(=O)[C@H](CCCCN(CC(=O)O)CC(=O)O)NC(=O)[C@H](Cc1c[nH]cn1)NC(=O)[C@H](CCC(N)=O)NC(=O)[C@H](CO)NC(=O)[C@H](CO)NC(=O)[C@H](CCC(N)=O)NC(=O)[C@@H](CO)NC(=O)CNC(=O)COCCOCCNC(=O)COCCOCCNC(=O)CCCCCCCCCCCCCCCCCCC(=O)O)C(=O)N[C@H]1CCC(=O)NCCCC[C@@H](C(N)=O)NC(=O)[C@H](Cc2c[nH]c3ccccc23)NC(=O)[C@H](CCCNC(=N)N)NC(=O)[C@@H](Cc2ccccc2)NC(=O)[C@@H]2C[C@@H](O)CN2C1=O [Example 22, {2-[2-(2-{2-[2-(19-Carboxynonadecanoylamino)ethoxy]ethoxy}acetylamino)ethoxy]ethoxy}acetyl-Gly-D-Ser-Gln-Ser-Ser-Gln-His-Lys(biscarboxymethyl)-β-Ala-Nle-c[Glu-Hyp-D-Phe-Arg-Trp-Lys]-NH2] ({C20 diacid-AEEA-AEEA}-G[dS]QSSQH[Lys(CH2CO2H)2][βAla][Nle]E[Hyp][dF]RWK-NH2; lactam 11-16) |  |  | 59 % of vehicle | 76 % of vehicle
